Patent publication US10611777B2, “Imidazopyridazine compounds and their use” (HUTCHISON MEDIPHARMA LIMITED, priority 2014, dated 2020)

Assays:
[1] = biological target: PI3K-γ (p110γ) (Homo sapiens (Human), UniProt P48736); test: Fluorescent determination of PI3K enzyme activity (Transcreener KINASE Assay), PI3K-γ; format: biochemical; settings: inhibition rate at 1 μM;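 also: p110γ enzyme reaction for 80 min at room temperature, ADP formed measured by far-red competitive fluorescence polarization immunoassay, inhibition relative to wells with 2% DMSO only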
Procedure: (§1) PI3K kinases including p110α/p85α and p110γ were purchased from Invitrogen, p110δ/p85α and p110β/p85α were from Millipore.
(§2) It is a universal, homogenous, high throughput screening (HTS) technology using a far-red, competitive fluorescence polarization immunoassay based on the defection of ADP to monitor the activity of enzymes that catalyze group transfer reactions. […] The reaction mixture was added into desired wells of a 96-well plate. The plate was sealed and incubated for 80 min at room temperature. • 2) Next, 25 uL ADP detection mix was added into each well. The plate was sealed again and incubated for 60 min at room temperature. Then fluorescence polarization was measured by Tecan Infinite F500 Reader.
(§3) Data was analyzed and IC50 values were generated using the add-in software for Microsoft Excel, Xlfit™ (version 5.3).
(§4) Inhibition rates were calculated as follow: IH %=(ADP amount under 2% DMSO well−ADP amount under test compound well)/ADP amount under 2% DMSO well×100%.

[2] = biological target: PI3K-β (p110β/p85α) (Homo sapiens (Human), UniProt P42338); test: Fluorescent determination of PI3K enzyme activity (Transcreener KINASE Assay), PI3K-β; format: biochemical; settings: for PI3K-β IH%: inhibition rate at 1 μM;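 as to all read-outs here: Far-red fluorescence polarization immunoassay detecting ADP produced by the kinase, 80 min enzyme reaction at room temperature, inhibition relative to ADP formed in 2% DMSO control wells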
Sequence of PI3K-β (p110β/p85α) (P42338 whole entry, species assumed): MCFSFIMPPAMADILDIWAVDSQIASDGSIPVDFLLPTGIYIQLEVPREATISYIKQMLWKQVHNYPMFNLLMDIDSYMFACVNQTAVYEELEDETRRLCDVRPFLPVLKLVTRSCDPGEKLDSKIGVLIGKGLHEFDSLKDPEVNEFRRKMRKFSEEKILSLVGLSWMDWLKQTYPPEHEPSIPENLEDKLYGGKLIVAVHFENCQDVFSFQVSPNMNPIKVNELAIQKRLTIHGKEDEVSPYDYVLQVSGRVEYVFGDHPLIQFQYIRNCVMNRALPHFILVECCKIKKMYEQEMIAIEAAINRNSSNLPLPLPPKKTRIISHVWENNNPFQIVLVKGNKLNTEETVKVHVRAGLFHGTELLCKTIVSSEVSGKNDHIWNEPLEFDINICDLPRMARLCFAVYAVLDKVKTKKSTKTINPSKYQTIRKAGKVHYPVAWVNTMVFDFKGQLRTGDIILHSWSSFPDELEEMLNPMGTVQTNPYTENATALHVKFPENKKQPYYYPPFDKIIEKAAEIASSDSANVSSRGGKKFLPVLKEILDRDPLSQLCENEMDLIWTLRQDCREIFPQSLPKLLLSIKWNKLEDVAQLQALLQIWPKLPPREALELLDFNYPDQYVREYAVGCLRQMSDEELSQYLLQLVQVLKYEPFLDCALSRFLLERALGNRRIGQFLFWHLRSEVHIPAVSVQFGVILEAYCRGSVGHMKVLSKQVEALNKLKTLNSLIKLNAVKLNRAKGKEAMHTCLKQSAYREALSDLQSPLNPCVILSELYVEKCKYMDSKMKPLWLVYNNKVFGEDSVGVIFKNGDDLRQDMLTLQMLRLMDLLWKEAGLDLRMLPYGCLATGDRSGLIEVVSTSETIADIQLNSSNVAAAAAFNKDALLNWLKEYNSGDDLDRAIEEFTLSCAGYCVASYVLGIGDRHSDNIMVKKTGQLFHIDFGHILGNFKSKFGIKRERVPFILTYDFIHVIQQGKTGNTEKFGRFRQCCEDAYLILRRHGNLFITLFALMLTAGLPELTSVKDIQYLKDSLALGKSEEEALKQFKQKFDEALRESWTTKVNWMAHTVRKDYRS
Sequence of PI3K-β (p110β/p85α) (P27986 whole entry partner, species assumed): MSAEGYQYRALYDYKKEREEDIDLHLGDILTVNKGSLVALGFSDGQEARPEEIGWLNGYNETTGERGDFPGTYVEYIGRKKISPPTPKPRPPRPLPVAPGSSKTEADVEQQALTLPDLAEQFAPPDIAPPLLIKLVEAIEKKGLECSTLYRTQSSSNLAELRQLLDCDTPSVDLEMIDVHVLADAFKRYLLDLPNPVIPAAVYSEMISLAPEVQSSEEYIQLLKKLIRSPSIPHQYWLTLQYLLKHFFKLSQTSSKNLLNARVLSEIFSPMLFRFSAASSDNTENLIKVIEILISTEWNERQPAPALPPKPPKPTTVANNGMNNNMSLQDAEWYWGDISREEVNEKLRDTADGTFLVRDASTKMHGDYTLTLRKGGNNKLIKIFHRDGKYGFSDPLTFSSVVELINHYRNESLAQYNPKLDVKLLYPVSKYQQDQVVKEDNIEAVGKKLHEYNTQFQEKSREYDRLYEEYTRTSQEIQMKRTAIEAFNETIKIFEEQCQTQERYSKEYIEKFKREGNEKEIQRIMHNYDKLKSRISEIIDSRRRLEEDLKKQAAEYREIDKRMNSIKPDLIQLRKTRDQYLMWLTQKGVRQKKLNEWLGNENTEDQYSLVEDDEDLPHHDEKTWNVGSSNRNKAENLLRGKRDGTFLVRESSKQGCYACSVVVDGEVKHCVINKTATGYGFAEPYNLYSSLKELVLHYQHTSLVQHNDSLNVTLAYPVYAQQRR
Procedure: as §1, §2, §3, §4

Sequence of PI3K-γ (p110γ) (P48736 whole entry, species assumed): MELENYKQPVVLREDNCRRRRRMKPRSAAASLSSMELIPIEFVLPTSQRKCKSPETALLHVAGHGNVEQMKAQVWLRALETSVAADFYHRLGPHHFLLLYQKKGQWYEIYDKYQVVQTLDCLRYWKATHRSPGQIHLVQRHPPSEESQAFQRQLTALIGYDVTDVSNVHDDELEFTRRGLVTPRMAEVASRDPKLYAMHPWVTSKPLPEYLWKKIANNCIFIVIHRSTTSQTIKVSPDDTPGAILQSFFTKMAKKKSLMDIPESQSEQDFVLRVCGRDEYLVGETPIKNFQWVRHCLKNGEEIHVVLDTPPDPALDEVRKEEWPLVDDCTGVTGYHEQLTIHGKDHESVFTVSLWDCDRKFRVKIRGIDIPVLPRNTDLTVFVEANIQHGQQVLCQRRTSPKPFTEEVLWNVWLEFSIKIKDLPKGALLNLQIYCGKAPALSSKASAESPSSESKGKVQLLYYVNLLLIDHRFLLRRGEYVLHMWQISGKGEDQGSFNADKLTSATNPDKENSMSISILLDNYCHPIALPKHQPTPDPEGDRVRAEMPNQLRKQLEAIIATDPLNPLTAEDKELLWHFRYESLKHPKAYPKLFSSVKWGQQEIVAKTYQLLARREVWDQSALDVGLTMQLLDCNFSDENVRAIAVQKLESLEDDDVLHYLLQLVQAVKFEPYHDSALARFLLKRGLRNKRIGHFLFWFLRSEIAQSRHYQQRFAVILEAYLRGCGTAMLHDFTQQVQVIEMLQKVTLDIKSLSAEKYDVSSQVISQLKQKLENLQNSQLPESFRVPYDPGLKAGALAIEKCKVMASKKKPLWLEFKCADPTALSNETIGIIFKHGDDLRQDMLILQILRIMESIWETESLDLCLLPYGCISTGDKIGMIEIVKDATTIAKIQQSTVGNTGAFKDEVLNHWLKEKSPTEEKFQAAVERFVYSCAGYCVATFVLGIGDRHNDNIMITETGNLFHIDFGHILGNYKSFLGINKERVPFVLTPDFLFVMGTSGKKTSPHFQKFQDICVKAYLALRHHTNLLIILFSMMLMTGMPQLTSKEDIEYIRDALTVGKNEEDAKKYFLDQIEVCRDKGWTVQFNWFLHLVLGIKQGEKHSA

SMILES	PI3K-γ IH% [1] [%]	PI3K-β IH% [2] [%]	IC50 [2] [nM]
CC(Nc1ncnc(N)c1C#N)c1cc2nccn2nc1-c1ccccc1 (stereo not drawn) [Compound 1, 4-amino-6-((1-(6-phenylimidazo[1,2-b]pyridazin-7-yl)ethyl)amino)pyrimidine-5-carbonitrile]	16.1	28.1	–
C[C@@H](Nc1ncnc(N)c1C#N)c1cc2ncc(Cl)n2nc1-c1ccccc1 [Compound 3, (R)-4-amino-6-((1-(3-chloro-6-phenylimidazo[1,2-b]pyridazin-7-yl)ethyl)amino)pyrimidine-5-carbonitrile]	6.9	–	–
CC[C@H](Nc1ncnc(N)c1C#N)c1cc2ncc(Cl)n2nc1-c1ccccc1 [Compound 6, (S)-4-amino-6-((1-(3-chloro-6-phenylimidazo[1,2-b]pyridazin-7-yl)propyl)amino)pyrimidine-5-carbonitrile]	4.1	–	–
C[C@H](Nc1ncnc2[nH]cnc12)c1cc2ncc(Cl)n2nc1-c1cccc(F)c1 [Compound 16]	–	27.5	–
CCC(Nc1ncnc2[nH]cnc12)c1cc2ncc(Cl)n2nc1-c1ccccc1 (stereo not drawn) [Compound 18]	–	42	–
C[C@@H](c1cc2ncc(Cl)n2nc1-c1ccccc1)n1cnc2c(N)ncnc21 [Compound 20, (S)-9-(1-(3-chloro-6-phenylimidazo[1,2-b]pyridazin-7-yl)ethyl)-9H-purin-6-amine]	43.1	17.4	–
CCC(Nc1ncnc2[nH]cnc12)c1cc2ncc(Cl)n2nc1-c1ccccc1F (stereo not drawn) [Compound 25]	–	22.8	–
C[C@H](Nc1ncnc(N)c1C#N)c1cc2ncc(Cl)n2nc1-c1ccc(F)c(F)c1 [Compound 63]	–	48.1	–
C[C@H](Nc1ncnc(N)c1C#N)c1cc2ncc(Cl)n2nc1-c1ccc(Cl)c(F)c1 [Compound 64]	–	44.1	–
C[C@H](Nc1ncnc(N)c1C#N)c1cc2ncc(Cl)n2nc1-c1ccccc1O [Compound 69, (S)-4-amino-6-((1-(3-chloro-6-(2-hydroxyphenyl)imidazo[1,2-b]pyridazin-7-yl)ethyl)amino)pyrimidine-5-carbonitrile]	–	–	133

More lines, now with the values ahead:

PI3K-γ IH% [1] [%]	PI3K-β IH% [2] [%]	IC50 [2] [nM]	SMILES
−1.4	–	–	CC(Nc1ncnc2[nH]cc(C#N)c12)c1cc2ncc(Cl)n2nc1-c1ccccc1 (single isomer, unassigned) [Compound 9]
–	55.7	–	CC(Nc1ncnc2[nH]cnc12)c1cc2ncc(Cl)n2nc1-c1ccccc1 (single isomer, unassigned) [Compound 11]
56.2	43.8	–	C[C@H](Nc1ncnc(N)c1C#N)c1cc2ncc(Cl)n2nc1-c1cccc(C(C)(C)O)c1 (single isomer, unassigned) [Compound 79, (chiral)-4-amino-6-((1-(3-chloro-6-(3-(2-hydroxypropan-2-yl)phenyl)imidazo[1,2-b]pyridazin-7-yl)ethyl)amino)pyrimidine-5-carbonitrile]
−2.3	37.7	–	C[C@H](Nc1ncnc(N)c1C#N)c1cc2ncc(Cl)n2nc1-c1ccccn1 [Compound 8, (S)-4-amino-6-((1-(3-chloro-6-(pyridin-2-yl)imidazo[1,2-b]pyridazin-7-yl)ethyl)amino)pyrimidine-5-carbonitrile]
–	59	–	C[C@H](Nc1ncnc(N)c1C#N)c1cc2ncc(Cl)n2nc1-c1cccc(F)c1 [Compound 15]
61.2	15.8	–	C[C@H](Nc1ncnc2[nH]ccc12)c1cc2ncc(Cl)n2nc1-c1ccccc1 [Compound 17]
35	–	–	CCC(Nc1ncnc(N)c1C#N)c1cc2ncc(Cl)n2nc1-c1ccccn1 (stereo not drawn) [Compound 29]
–	23.8	–	Cc1nc(N)c(C#N)c(N[C@@H](C)c2cc3ncc(Cl)n3nc2-c2ccccc2)n1 [Compound 32]
–	55.2	–	Cc1noc(-c2c(N)ncnc2N[C@@H](C)c2cc3ncc(Cl)n3nc2-c2ccccc2)n1 [Compound 82, (S)-N^4-(1-(3-chloro-6-phenylimidazo[1,2-b]pyridazin-7-yl)ethyl)-5-(3-methyl-1,2,4-oxadiazol-5-yl)pyrimidine-4,6-diamine]
